Measurements taken from patent publication US20200024278A1, “COMPOSITION COMPRISING ANTIBIOTIC COMPOUND AND AN HETEROCYCLIC COMPOUND AND THEIR USE IN PREVENTING OR TREATING BACTERIAL INFECTIONS” (MUTABILIS, priority 2016, published 2020).

Key:
Assay in all cases: MIC, broth microdilution (CLSI), substance alone or ATB combined with compound at 4 or 8 μg/mL
ECO 190317 = format: cell-based, E. coli; details: ECO 190317; for MIC ATB combined with Example: Example @8 μg/ml
How it was run: (§1)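 CLSI broth microdilution in cation-adjusted Mueller-Hinton broth, 5·10^5 CFU/mL log-phase inoculum, 16-20 h at 35 °C in ambient air. Fosfomycin assays supplemented with 25 μg/ml glucose-6-phosphate.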

ECO UFR39 = format: cell-based, E. coli; details: ECO UFR39; for MIC ATB combined with Example: Example @8 μg/ml; for MIC ATB combined with Example compound: compound @8 μg/ml
How it was run: as §1

ECL P99 = format: cell-based, E. cloacae; details: ECL P99; for MIC ATB combined with Example: Example @8 μg/ml
How it was run: as §1

KPN BAA-1898 = format: cell-based, K. pneumoniae; details: KPN BAA-1898; for MIC ATB combined with Example: Example @8 μg/ml
How it was run: as §1

KPN UFR42 = format: cell-based, K. pneumoniae; details: KPN UFR42; for MIC ATB combined with Example: Example @8 μg/ml; for MIC ATB combined with Example compound: compound @8 μg/ml
How it was run: as §1

KPN 6299 = format: cell-based, K. pneumoniae; details: for MIC ATB combined with Example: Example @8 μg/ml
How it was run: as §1

SPN 49619 = format: cell-based, S. pneumoniae; details: SPN 49619; for MIC ATB combined with Example: Example @8 μg/ml; for MIC ATB combined with Example compound: compound @8 μg/ml
How it was run: as §1

PAE 105250 = format: cell-based, P. aeruginosa; details: PAE 105250; for MIC ATB combined with Example: Example @8 μg/ml; for MIC ATB combined with Example compound: compound @8 μg/ml
How it was run: as §1

PAE UFR48 = format: cell-based, P. aeruginosa; details: PAE UFR48; for MIC ATB combined with Example: Example @8 μg/ml; for MIC ATB combined with Example compound: compound @8 μg/ml
How it was run: as §1

PAE UFR90 = format: cell-based, P. aeruginosa; details: PAE UFR90; for MIC ATB combined with Example: Example @8 μg/ml; for MIC ATB combined with Example compound: compound @8 μg/ml
How it was run: as §1

SAU 29213 = format: cell-based, S. aureus; details: for MIC ATB combined with Example / MIC ATB combined with Example compound: SAU 29213; for MIC ATB combined with Example: Example @8 μg/ml; for MIC ATB combined with Example compound: compound @8 μg/ml
How it was run: as §1

[1] = Escherichia coli, substance alone, read-out: MIC

O=C1N2CC(n3cncn3)=CC(C2)N1OS(=O)(=O)[O-].[Na+] (stereo not shown) [Example 14, sodium [7-oxo-3-(1,2,4-triazol-1-yl)-1,6-diazabicyclo[3.2.1]oct-3-en-6-yl] sulfate]
MIC ATB combined with Example (ECO 190317; ATB ATM): <0.031 µg/mL
MIC ATB combined with Example (ECO 190317; ATB FEP): <0.031 µg/mL
MIC ATB combined with Example (ECO 190317; ATB FOS): <0.125 µg/mL
MIC ATB combined with Example (ECO 190317; ATB MEM): <0.031 µg/mL
MIC ATB combined with Example (ECO 190317; ATB PIP): <0.031 µg/mL
MIC (ECO 190317; [1]): 1 µg/mL
MIC ATB combined with Example compound (ECO 190317; MIC of CIP, compound @8 μg/ml): <0.031 µg/mL
MIC ATB combined with Example (ECO UFR39; ATB ATM): <0.031 µg/mL
MIC ATB combined with Example (ECO UFR39; ATB FEP): <0.031 µg/mL
MIC ATB combined with Example (ECO UFR39; ATB FOS): <0.125 µg/mL
MIC ATB combined with Example (ECO UFR39; ATB MEM): <0.031 µg/mL
MIC ATB combined with Example (ECO UFR39; ATB PIP): <0.031 µg/mL
MIC (ECO UFR39; [1]): 2 µg/mL
MIC ATB combined with Example compound (ECO UFR39; MIC of CIP): <0.031 µg/mL
MIC ATB combined with Example compound (ECO UFR39; MIC of CPO): <0.031 µg/mL
MIC ATB combined with Example (ECL P99; ATB ATM): <0.031 µg/mL
MIC ATB combined with Example (ECL P99; ATB FEP): <0.031 µg/mL
MIC ATB combined with Example (ECL P99; ATB FOS): <0.125 µg/mL
MIC ATB combined with Example (ECL P99; ATB MEM): <0.031 µg/mL
MIC ATB combined with Example (ECL P99; ATB PIP): <0.031 µg/mL
MIC (ECL P99; Enterobacter cloacae, substance alone, read-out: MIC): 4 µg/mL
MIC ATB combined with Example compound (ECL P99; MIC of CIP, compound @8 μg/ml): <0.031 µg/mL
MIC ATB combined with Example (KPN BAA-1898; ATB ATM): <0.031 µg/mL
MIC ATB combined with Example (KPN BAA-1898; ATB FEP): <0.031 µg/mL
MIC ATB combined with Example (KPN BAA-1898; ATB FOS): <0.125 µg/mL
MIC ATB combined with Example (KPN BAA-1898; ATB MEM): <0.031 µg/mL
MIC ATB combined with Example (KPN BAA-1898; ATB PIP): <0.031 µg/mL
MIC (KPN BAA-1898; Klebsiella pneumoniae, BAA1898, substance alone, read-out: MIC): 4 µg/mL
MIC ATB combined with Example compound (KPN BAA-1898; MIC of CIP, compound @8 μg/ml): <0.031 µg/mL
MIC ATB combined with Example (KPN UFR42; ATB ATM): <0.031 µg/mL
MIC ATB combined with Example (KPN UFR42; ATB FEP): <0.031 µg/mL
MIC ATB combined with Example (KPN UFR42; ATB FOS): <0.125 µg/mL
MIC ATB combined with Example (KPN UFR42; ATB MEM): <0.031 µg/mL
MIC ATB combined with Example (KPN UFR42; ATB PIP): <0.031 µg/mL
MIC (KPN UFR42; Klebsiella pneumoniae, substance alone, read-out: MIC): 8 µg/mL
MIC ATB combined with Example compound (KPN UFR42; MIC of CIP): <0.031 µg/mL
MIC ATB combined with Example compound (KPN UFR42; MIC of CPO): <0.031 µg/mL
MIC ATB combined with Example (KPN 6299; ATB ATM): <0.031 µg/mL
MIC ATB combined with Example (KPN 6299; ATB FEP): <0.031 µg/mL
MIC ATB combined with Example (KPN 6299; ATB FOS): <0.125 µg/mL
MIC ATB combined with Example (KPN 6299; ATB MEM): <0.031 µg/mL
MIC ATB combined with Example (KPN 6299; ATB PIP): <0.031 µg/mL
MIC ATB combined with Example compound (KPN 6299; MIC of CIP, compound @8 μg/ml): <0.031 µg/mL
MIC ATB combined with Example (SPN 49619; ATB ATM): <0.031 µg/mL
MIC ATB combined with Example (SPN 49619; ATB FEP): <=0.031 μg/mL
MIC ATB combined with Example (SPN 49619; ATB FOS): 0.5 µg/mL
MIC ATB combined with Example (SPN 49619; ATB MEM): <0.031 µg/mL
MIC ATB combined with Example (SPN 49619; ATB PIP): 0.063 µg/mL
MIC ATB combined with Example compound (SPN 49619; MIC of CIP): 0.031 µg/mL
MIC ATB combined with Example compound (SPN 49619; MIC of CLI): <0.0010 µg/mL
MIC ATB combined with Example compound (SPN 49619; MIC of CPO): <0.031 µg/mL
MIC ATB combined with Example compound (SPN 49619; MIC of DAP): <=0.0020 μg/mL
MIC ATB combined with Example compound (SPN 49619; MIC of ERY): <0.0020 µg/mL
MIC ATB combined with Example compound (SPN 49619; MIC of LZD): <0.0078 µg/mL
MIC ATB combined with Example compound (SPN 49619; MIC of RIF): <=0.00012 μg/mL
MIC ATB combined with Example compound (SPN 49619; MIC of SYN): <=0.0020 μg/mL
MIC ATB combined with Example compound (SPN 49619; MIC of VAN): <0.0039 µg/mL
MIC (SPN 49619; Streptococcus pneumoniae, substance alone, read-out: MIC): 8 µg/mL
MIC ATB combined with Example (PAE 105250; ATB ATM): 8 µg/mL
MIC ATB combined with Example (PAE 105250; ATB FEP): 4 µg/mL
MIC ATB combined with Example (PAE 105250; ATB FOS): >128 µg/mL
MIC ATB combined with Example (PAE 105250; ATB MEM): 2 µg/mL
MIC ATB combined with Example (PAE 105250; ATB PIP): 32 µg/mL
MIC ATB combined with Example compound (PAE 105250; MIC of CIP): 0.125 µg/mL
MIC ATB combined with Example compound (PAE 105250; MIC of CPO): 8 µg/mL
MIC ATB combined with Example (PAE UFR48; ATB ATM): 8 µg/mL
MIC ATB combined with Example (PAE UFR48; ATB FEP): 16 µg/mL
MIC ATB combined with Example (PAE UFR48; ATB FOS): 32 µg/mL
MIC ATB combined with Example (PAE UFR48; ATB MEM): 0.25 µg/mL
MIC ATB combined with Example (PAE UFR48; ATB PIP): 16 µg/mL
MIC ATB combined with Example compound (PAE UFR48; MIC of CIP): 4 µg/mL
MIC ATB combined with Example compound (PAE UFR48; MIC of CPO): >32 µg/mL
MIC ATB combined with Example (PAE UFR90; ATB ATM): 16 µg/mL
MIC ATB combined with Example (PAE UFR90; ATB FEP): 4 µg/mL
MIC ATB combined with Example (PAE UFR90; ATB FOS): 8 µg/mL
MIC ATB combined with Example (PAE UFR90; ATB MEM): 2 µg/mL
MIC ATB combined with Example (PAE UFR90; ATB PIP): >32 µg/mL
MIC ATB combined with Example compound (PAE UFR90; MIC of CIP): 1 µg/mL
MIC ATB combined with Example compound (PAE UFR90; MIC of CPO): 8 µg/mL
MIC ATB combined with Example (SAU 29213; ATB ATM): <0.031 µg/mL
MIC ATB combined with Example (SAU 29213; ATB FEP): <0.031 µg/mL
MIC ATB combined with Example (SAU 29213; ATB FOS): <0.125 µg/mL
MIC ATB combined with Example (SAU 29213; ATB MEM): <0.031 µg/mL
MIC ATB combined with Example (SAU 29213; ATB PIP): <0.031 µg/mL
MIC ATB combined with Example compound (SAU 29213; MIC of CIP): <0.031 µg/mL
MIC ATB combined with Example compound (SAU 29213; MIC of CLI): <0.0010 µg/mL
MIC ATB combined with Example compound (SAU 29213; MIC of CPO): <0.031 µg/mL
MIC ATB combined with Example compound (SAU 29213; MIC of DAP): <0.0020 µg/mL
MIC ATB combined with Example compound (SAU 29213; MIC of ERY): <0.0020 µg/mL
MIC ATB combined with Example compound (SAU 29213; MIC of LZD): <0.0078 µg/mL
MIC ATB combined with Example compound (SAU 29213; MIC of RIF): <0.00012 µg/mL
MIC ATB combined with Example compound (SAU 29213; MIC of SYN): <0.0020 µg/mL
MIC ATB combined with Example compound (SAU 29213; MIC of VAN): <0.0039 µg/mL
MIC (SAU 29213; Staphylococcus aureus, substance alone, SAU 29213 (MSSA 29213), read-out: MIC): 4 µg/mL
